Assays:
Test in all cases: MIC by standard blood agar dilution technique
S. aureus = tested on: S. aureus
From the text: (§1) The following bacteria were investigated: methicillin-resistant Staphylococcus aureus (MSRA), fucidic acid-resistant S. aureus, non-resistant S. pyogenes, coagulation-negative staphylococci (for resistance, see Table 1 below) vancomycin-resistant enterococci (Enterococcus CCUG van A and van B), non-resistant Escherichia coli, Acinetobacter resistant against cefadroxil, nitrofurantin, mecillinam, Serratia maltophilia resistant against most types of antibiotics, Enterobacter (for resistance, see Table 1 below; additionally resistant against cefadroxil and nitrofurantin), non-resistant α-streptococci, non-resistant Streptococcus Group G, Pseudomonas aeruginosa (for resistance, see Table 2 below). Inocula of 10^3 and 10^5 bacteria were used.

[1] = tested on: coagulation-negative staphylococci
From the text: as §1

[2] = tested on: methicillin-resistant Staphylococcus aureus; details: MR fuc +, met +
From the text: as §1

Enterococcus = details: MR fuc +, van −
From the text: as §1

OCCCCCO [pentane-1,5-diol]
MIC (% by weight of pentane-1,5-diol) (S. aureus; S. aureus 916 × 8137, inoculate size 10^3, MR fuc −): 12.5 % by weight | MIC (% by weight of pentane-1,5-diol) (S. aureus; S. aureus 916 × 8137, inoculate size 10^5, MR fuc −): 10.0 % by weight | MIC (% by weight of pentane-1,5-diol) (S. aureus; S. aureus 916 × 8143, inoculate size 10^3, MR fuc −): 12.5 % by weight | MIC (% by weight of pentane-1,5-diol) (S. aureus; S. aureus 916 × 8143, inoculate size 10^5, MR fuc −): 12.5 % by weight | MIC (% by weight of pentane-1,5-diol) (S. aureus; S. aureus 916 × 8150, inoculate size 10^3, MR fuc −): 12.5 % by weight | MIC (% by weight of pentane-1,5-diol) (S. aureus; S. aureus 916 × 8150, inoculate size 10^5, MR fuc −): 15.0 % by weight | MIC (% by weight of pentane-1,5-diol) (S. aureus; S. aureus 916 × 8155, inoculate size 10^3, MR fuc −): 10.0 % by weight | MIC (% by weight of pentane-1,5-diol) (S. aureus; S. aureus 916 × 8155, inoculate size 10^5, MR fuc −): 12.5 % by weight | MIC (% by weight of pentane-1,5-diol) (S. aureus; S. aureus 916 × 8158, inoculate size 10^3, MR fuc −): 12.5 % by weight | MIC (% by weight of pentane-1,5-diol) (S. aureus; S. aureus 916 × 8158, inoculate size 10^5, MR fuc −): 15.0 % by weight | MIC (% by weight of pentane-1,5-diol) (S. aureus; S. aureus 916 × 8163, inoculate size 10^3, MR fuc +): 12.5 % by weight | MIC (% by weight of pentane-1,5-diol) (S. aureus; S. aureus 916 × 8163, inoculate size 10^5, MR fuc +): 17.5 % by weight | MIC (% by weight of pentane-1,5-diol) (S. aureus; S. aureus 916 × 8180, inoculate size 10^3, MR fuc −): 12.5 % by weight | MIC (% by weight of pentane-1,5-diol) (S. aureus; S. aureus 916 × 8180, inoculate size 10^5, MR fuc −): 15.0 % by weight | MIC (% by weight of pentane-1,5-diol) (S. aureus; S. aureus 916 × 8181, inoculate size 10^3, MR fuc −): 12.5 % by weight | MIC (% by weight of pentane-1,5-diol) (S. aureus; S. aureus 916 × 8181, inoculate size 10^5, MR fuc −): 15.0 % by weight | MIC (% by weight of pentane-1,5-diol) (S. aureus; S. aureus 916 × 8183, inoculate size 10^3, MR fuc −): 12.5 % by weight | MIC (% by weight of pentane-1,5-diol) (S. aureus; S. aureus 916 × 8183, inoculate size 10^5, MR fuc −): 17.5 % by weight | MIC (% by weight of pentane-1,5-diol) (S. aureus; S. aureus 916 × 8184, inoculate size 10^3, MR fuc +): 10.0 % by weight | MIC (% by weight of pentane-1,5-diol) (S. aureus; S. aureus 916 × 8184, inoculate size 10^5, MR fuc +): 12.5 % by weight | MIC (% by weight of pentane-1,5-diol) (S. aureus; S. aureus 916 × 8191, inoculate size 10^3, MR fuc −): 12.5 % by weight | MIC (% by weight of pentane-1,5-diol) (S. aureus; S. aureus 916 × 8191, inoculate size 10^5, MR fuc −): 15.0 % by weight | MIC (% by weight of pentane-1,5-diol) ([1]; Coag.neg.staph. 900 × 5515, inoculate size 10^3, MR fuc +): 12.5 % by weight | MIC (% by weight of pentane-1,5-diol) ([1]; Coag.neg.staph. 900 × 5515, inoculate size 10^5, MR fuc +): 15.0 % by weight | MIC (% by weight of pentane-1,5-diol) ([1]; Coag.neg.staph. 900 × 5516, inoculate size 10^3, MR fuc −): 7.5 % by weight | MIC (% by weight of pentane-1,5-diol) ([1]; Coag.neg.staph. 900 × 5516, inoculate size 10^5, MR fuc −): 12.5 % by weight | MIC (% by weight of pentane-1,5-diol) ([1]; Coag.neg.staph. 900 × 5525, inoculate size 10^5, MR fuc −): 7.5 % by weight | MIC (% by weight of pentane-1,5-diol) ([1]; Coag.neg.staph. 900 × 5538, inoculate size 10^3, MR fuc −): 5.0 % by weight | MIC (% by weight of pentane-1,5-diol) ([1]; Coag.neg.staph. 900 × 5538, inoculate size 10^5, MR fuc −): 12.5 % by weight | MIC (% by weight of pentane-1,5-diol) ([1]; Coag.neg.staph. 900 × 5539, inoculate size 10^3, MR fuc −): 7.5 % by weight | MIC (% by weight of pentane-1,5-diol) ([1]; Coag.neg.staph. 900 × 5539, inoculate size 10^5, MR fuc −): 10.0 % by weight | MIC (% by weight of pentane-1,5-diol) ([1]; Coag.neg.staph. 902 × 14176 large, inoculate size 10^3, MR fuc −): 7.5 % by weight | MIC (% by weight of pentane-1,5-diol) ([1]; Coag.neg.staph. 902 × 14176 large, inoculate size 10^5, MR fuc −): 20.0 % by weight | MIC (% by weight of pentane-1,5-diol) ([1]; Coag.neg.staph. 902 × 14176 small, inoculate size 10^3, MR fuc +): 7.5 % by weight | MIC (% by weight of pentane-1,5-diol) ([1]; Coag.neg.staph. 902 × 14176 small, inoculate size 10^5, MR fuc +): 10.0 % by weight | MIC (% by weight of pentane-1,5-diol) ([1]; Coag.neg.staph. 904 × 2816, inoculate size 10^3, MR fuc +): 10.0 % by weight | MIC (% by weight of pentane-1,5-diol) ([1]; Coag.neg.staph. 904 × 2816, inoculate size 10^5, MR fuc +): 17.5 % by weight | MIC (% by weight of pentane-1,5-diol) ([1]; Coag.neg.staph. 916 × 8132, inoculate size 10^3, MR fuc −): 7.5 % by weight | MIC (% by weight of pentane-1,5-diol) ([1]; Coag.neg.staph. 916 × 8132, inoculate size 10^5, MR fuc −): 12.5 % by weight | MIC (% by weight of pentane-1,5-diol) ([1]; Coag.neg.staph. 916 × 8188, inoculate size 10^3, MR fuc −): 15.0 % by weight | MIC (% by weight of pentane-1,5-diol) ([1]; Coag.neg.staph. 916 × 8188, inoculate size 10^5, MR fuc −): 17.5 % by weight | MIC (% by weight of pentane-1,5-diol) ([2]; MRSA CCUG 41787, inoculate size 10^3): 12.5 % by weight | MIC (% by weight of pentane-1,5-diol) ([2]; MRSA CCUG 41787, inoculate size 10^5): 17.5 % by weight | MIC (% by weight of pentane-1,5-diol) ([2]; MRSA CCUG 45007, inoculate size 10^3): 10.0 % by weight | MIC (% by weight of pentane-1,5-diol) ([2]; MRSA CCUG 45007, inoculate size 10^5): 12.5 % by weight | MIC (% by weight of pentane-1,5-diol) ([2]; MRSA CCUG 45008, inoculate size 10^3): 12.5 % by weight | MIC (% by weight of pentane-1,5-diol) ([2]; MRSA CCUG 45008, inoculate size 10^5): 15.0 % by weight | MIC (% by weight of pentane-1,5-diol) ([2]; MRSA CCUG 46463, inoculate size 10^3): 10.0 % by weight | MIC (% by weight of pentane-1,5-diol) ([2]; MRSA CCUG 46463, inoculate size 10^5): 15.0 % by weight | MIC (% by weight of pentane-1,5-diol) ([2]; MRSA CCUG 46618, inoculate size 10^3): 12.5 % by weight | MIC (% by weight of pentane-1,5-diol) ([2]; MRSA CCUG 46618, inoculate size 10^5): 15.0 % by weight | MIC (% by weight of pentane-1,5-diol) ([2]; MRSA CCUG 46740, inoculate size 10^3): 12.5 % by weight | MIC (% by weight of pentane-1,5-diol) ([2]; MRSA CCUG 46740, inoculate size 10^5): 17.5 % by weight | MIC (% by weight of pentane-1,5-diol) ([2]; MRSA CCUG 46870, inoculate size 10^3): 10.0 % by weight | MIC (% by weight of pentane-1,5-diol) ([2]; MRSA CCUG 46870, inoculate size 10^5): 17.5 % by weight | MIC (% by weight of pentane-1,5-diol) ([2]; MRSA CCUG 47019, inoculate size 10^3): 10.0 % by weight | MIC (% by weight of pentane-1,5-diol) ([2]; MRSA CCUG 47019, inoculate size 10^5): 17.5 % by weight | MIC (% by weight of pentane-1,5-diol) ([2]; MRSA Cypem, inoculate size 10^3): 7.5 % by weight | MIC (% by weight of pentane-1,5-diol) ([2]; MRSA Cypem, inoculate size 10^5): 10.0 % by weight | MIC (% by weight of pentane-1,5-diol) ([2]; MRSA PB/SS, inoculate size 10^3): 12.5 % by weight | MIC (% by weight of pentane-1,5-diol) ([2]; MRSA PB/SS, inoculate size 10^5): 15.0 % by weight | MIC (% by weight of pentane-1,5-diol) (Enterococcus; Enterococcus 921 × 57002, inoculate size 10^3, tri −): 7.5 % by weight | MIC (% by weight of pentane-1,5-diol) (Enterococcus; Enterococcus 921 × 57002, inoculate size 10^5, tri −): 10.0 % by weight | MIC (% by weight of pentane-1,5-diol) (Enterococcus; Enterococcus 921 × 57022, inoculate size 10^3, cip +, tri +): 5.0 % by weight | MIC (% by weight of pentane-1,5-diol) (Enterococcus; Enterococcus 921 × 57022, inoculate size 10^5, cip +, tri +): 7.5 % by weight
